Measurements reported in ChEMBL document CHEMBL5442219.

How the values were obtained:
Settings in all cases: Compound concentration 10 µM
[1] = target: T1, Alpha-2A adrenergic receptor (Homo sapiens) (UniProt P08913)
T1 sequence (whole entry): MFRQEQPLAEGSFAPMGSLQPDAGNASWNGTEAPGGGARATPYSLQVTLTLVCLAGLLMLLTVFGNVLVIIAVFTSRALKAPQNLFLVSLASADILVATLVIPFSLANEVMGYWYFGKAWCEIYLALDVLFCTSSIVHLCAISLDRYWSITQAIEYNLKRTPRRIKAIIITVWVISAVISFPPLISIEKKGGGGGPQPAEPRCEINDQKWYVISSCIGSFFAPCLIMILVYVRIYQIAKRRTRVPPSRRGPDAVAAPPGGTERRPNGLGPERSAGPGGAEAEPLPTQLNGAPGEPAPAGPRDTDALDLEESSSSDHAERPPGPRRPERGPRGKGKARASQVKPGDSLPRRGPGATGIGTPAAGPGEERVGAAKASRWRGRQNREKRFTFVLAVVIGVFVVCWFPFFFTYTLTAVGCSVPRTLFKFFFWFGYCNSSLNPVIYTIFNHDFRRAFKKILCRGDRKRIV

[2] = target: T2, Alpha-2B adrenergic receptor (Homo sapiens) (UniProt P18089)
T2 sequence (whole entry): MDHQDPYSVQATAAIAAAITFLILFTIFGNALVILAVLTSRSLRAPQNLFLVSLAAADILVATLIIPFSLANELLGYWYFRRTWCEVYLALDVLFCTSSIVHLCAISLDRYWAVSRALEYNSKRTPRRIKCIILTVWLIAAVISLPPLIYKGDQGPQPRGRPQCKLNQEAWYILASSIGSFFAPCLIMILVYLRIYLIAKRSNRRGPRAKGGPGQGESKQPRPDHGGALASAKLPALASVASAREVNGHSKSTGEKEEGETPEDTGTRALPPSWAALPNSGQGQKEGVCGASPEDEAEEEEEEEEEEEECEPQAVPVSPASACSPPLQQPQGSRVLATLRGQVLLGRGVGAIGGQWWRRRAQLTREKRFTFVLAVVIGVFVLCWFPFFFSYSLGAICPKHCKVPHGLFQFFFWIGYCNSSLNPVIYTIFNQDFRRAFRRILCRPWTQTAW

[3] = target: T3, Alpha-2C adrenergic receptor (Homo sapiens) (UniProt P18825)
T3 sequence (whole entry): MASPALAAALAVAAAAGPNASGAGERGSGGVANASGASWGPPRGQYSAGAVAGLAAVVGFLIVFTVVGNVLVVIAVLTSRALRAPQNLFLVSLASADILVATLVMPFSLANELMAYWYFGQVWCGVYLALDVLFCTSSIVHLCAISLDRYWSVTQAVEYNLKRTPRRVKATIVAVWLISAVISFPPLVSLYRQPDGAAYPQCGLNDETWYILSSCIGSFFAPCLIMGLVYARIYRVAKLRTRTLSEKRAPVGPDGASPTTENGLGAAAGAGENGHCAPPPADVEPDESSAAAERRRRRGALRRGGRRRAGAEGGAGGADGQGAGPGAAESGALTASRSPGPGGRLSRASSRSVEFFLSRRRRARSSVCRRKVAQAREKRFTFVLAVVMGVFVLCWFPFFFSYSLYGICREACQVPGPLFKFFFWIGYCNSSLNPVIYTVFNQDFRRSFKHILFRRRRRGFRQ

[4] = target: Beta-2 adrenergic receptor (Homo sapiens) (UniProt P07550)
[5] = target: T4, Muscarinic acetylcholine receptor M1 (Homo sapiens) (UniProt P11229)
T4 sequence (whole entry): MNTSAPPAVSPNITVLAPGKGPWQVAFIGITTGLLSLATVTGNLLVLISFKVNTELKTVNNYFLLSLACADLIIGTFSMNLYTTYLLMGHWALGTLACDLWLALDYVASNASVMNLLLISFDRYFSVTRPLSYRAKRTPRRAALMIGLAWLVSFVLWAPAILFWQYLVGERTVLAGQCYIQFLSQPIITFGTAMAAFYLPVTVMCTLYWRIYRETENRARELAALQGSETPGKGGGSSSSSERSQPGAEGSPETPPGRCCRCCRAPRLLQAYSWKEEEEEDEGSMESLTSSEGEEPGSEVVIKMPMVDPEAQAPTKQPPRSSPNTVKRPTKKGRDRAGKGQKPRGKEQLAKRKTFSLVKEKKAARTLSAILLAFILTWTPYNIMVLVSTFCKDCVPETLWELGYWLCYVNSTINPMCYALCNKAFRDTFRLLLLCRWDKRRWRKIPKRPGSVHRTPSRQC

[6] = target: D(2) dopamine receptor (Homo sapiens) (UniProt P14416)
[7] = target: T5, D(4) dopamine receptor (Homo sapiens) (UniProt P21917)
T5 sequence (whole entry): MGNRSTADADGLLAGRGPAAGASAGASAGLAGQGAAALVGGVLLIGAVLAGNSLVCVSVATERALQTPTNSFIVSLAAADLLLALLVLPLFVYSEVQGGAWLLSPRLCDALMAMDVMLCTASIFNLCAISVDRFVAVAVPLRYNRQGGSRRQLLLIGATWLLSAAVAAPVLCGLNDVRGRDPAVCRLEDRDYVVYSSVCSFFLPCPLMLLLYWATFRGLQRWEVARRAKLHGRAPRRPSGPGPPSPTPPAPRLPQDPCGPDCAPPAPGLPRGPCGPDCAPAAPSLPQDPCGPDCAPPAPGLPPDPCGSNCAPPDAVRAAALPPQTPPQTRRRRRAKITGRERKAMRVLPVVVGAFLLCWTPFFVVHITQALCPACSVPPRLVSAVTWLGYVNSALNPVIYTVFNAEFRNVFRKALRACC

[8] = target: Histamine H1 receptor (Homo sapiens) (UniProt P35367)
[9] = target: Histamine H3 receptor (Homo sapiens) (UniProt Q9Y5N1)
[10] = target: Histamine H4 receptor (Homo sapiens) (UniProt Q9H3N8)
[11] = target: 5-hydroxytryptamine receptor 1B (Homo sapiens) (UniProt P28222)
[12] = target: 5-hydroxytryptamine receptor 1D (Homo sapiens) (UniProt P28221)
[13] = target: 5-hydroxytryptamine receptor 1E (Homo sapiens) (UniProt P28566)
[14] = target: 5-hydroxytryptamine receptor 2B (Homo sapiens) (UniProt P41595)
[15] = target: 5-hydroxytryptamine receptor 7 (Homo sapiens) (UniProt P34969)
[16] = target: Kappa-type opioid receptor (Homo sapiens) (UniProt P41145)
[17] = target: Mu-type opioid receptor (Homo sapiens) (UniProt P35372)
[18] = target: Sigma non-opioid intracellular receptor 1 (Homo sapiens) (UniProt Q99720)
[19] = target: Sodium-dependent dopamine transporter (Homo sapiens) (UniProt Q01959)
[20] = target: Sigma intracellular receptor 2 (Homo sapiens) (UniProt Q5BJF2)
[21] = target: Translocator protein (Homo sapiens) (UniProt P30536)
[22] = target: T6, Muscarinic acetylcholine receptor M4 (Homo sapiens) (UniProt P08173)
T6 sequence (whole entry): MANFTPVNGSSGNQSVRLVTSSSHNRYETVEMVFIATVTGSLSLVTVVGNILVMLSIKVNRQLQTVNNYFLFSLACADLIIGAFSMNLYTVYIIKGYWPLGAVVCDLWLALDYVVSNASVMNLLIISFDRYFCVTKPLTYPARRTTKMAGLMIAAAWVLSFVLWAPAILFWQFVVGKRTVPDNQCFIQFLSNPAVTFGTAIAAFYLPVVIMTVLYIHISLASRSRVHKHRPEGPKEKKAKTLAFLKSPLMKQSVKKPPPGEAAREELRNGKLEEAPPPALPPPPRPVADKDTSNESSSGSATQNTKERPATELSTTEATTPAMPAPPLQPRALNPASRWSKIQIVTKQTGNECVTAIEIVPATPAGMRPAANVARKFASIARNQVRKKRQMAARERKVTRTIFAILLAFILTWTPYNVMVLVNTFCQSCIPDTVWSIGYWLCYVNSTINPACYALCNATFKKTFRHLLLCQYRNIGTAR

[23] = target: D(1A) dopamine receptor (Homo sapiens) (UniProt P21728)
[24] = target: D(3) dopamine receptor (Homo sapiens) (UniProt P35462)
[25] = target: T7, 5-hydroxytryptamine receptor 1A (Homo sapiens) (UniProt P08908)
T7 sequence (whole entry): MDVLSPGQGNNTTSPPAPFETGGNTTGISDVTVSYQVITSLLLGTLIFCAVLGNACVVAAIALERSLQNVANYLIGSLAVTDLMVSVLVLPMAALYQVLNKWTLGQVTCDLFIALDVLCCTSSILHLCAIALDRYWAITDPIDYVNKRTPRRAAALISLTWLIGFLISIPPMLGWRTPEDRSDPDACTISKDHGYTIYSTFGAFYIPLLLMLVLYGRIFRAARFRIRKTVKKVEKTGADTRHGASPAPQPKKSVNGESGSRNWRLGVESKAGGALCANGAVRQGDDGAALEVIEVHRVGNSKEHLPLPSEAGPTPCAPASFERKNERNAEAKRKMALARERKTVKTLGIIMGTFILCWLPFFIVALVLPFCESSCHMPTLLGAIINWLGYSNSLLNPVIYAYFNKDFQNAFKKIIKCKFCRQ

[26] = target: 5-hydroxytryptamine receptor 2A (Homo sapiens) (UniProt P28223)
[27] = target: T8, 5-hydroxytryptamine receptor 3A (Homo sapiens) (UniProt P46098)
T8 sequence (whole entry): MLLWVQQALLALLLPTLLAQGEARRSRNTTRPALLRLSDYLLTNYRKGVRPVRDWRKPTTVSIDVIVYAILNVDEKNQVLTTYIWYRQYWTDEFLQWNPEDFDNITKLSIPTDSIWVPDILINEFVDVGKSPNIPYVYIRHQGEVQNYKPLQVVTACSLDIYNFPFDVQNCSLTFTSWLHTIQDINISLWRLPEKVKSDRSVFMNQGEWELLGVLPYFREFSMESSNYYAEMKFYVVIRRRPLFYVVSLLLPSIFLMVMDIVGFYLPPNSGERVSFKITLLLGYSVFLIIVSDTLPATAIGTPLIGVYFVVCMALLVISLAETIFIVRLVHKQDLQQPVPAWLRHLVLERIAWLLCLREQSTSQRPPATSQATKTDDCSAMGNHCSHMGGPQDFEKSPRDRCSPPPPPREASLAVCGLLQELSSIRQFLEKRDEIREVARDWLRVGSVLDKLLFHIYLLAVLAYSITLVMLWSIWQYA

[28] = target: Sodium-dependent serotonin transporter (Homo sapiens) (UniProt P31645)
[29] = target: Beta-3 adrenergic receptor (Homo sapiens) (UniProt P13945)
[30] = target: Histamine H2 receptor (Homo sapiens) (UniProt P25021)

Sequence of Mu-type opioid receptor (Homo sapiens) (P35372 whole entry): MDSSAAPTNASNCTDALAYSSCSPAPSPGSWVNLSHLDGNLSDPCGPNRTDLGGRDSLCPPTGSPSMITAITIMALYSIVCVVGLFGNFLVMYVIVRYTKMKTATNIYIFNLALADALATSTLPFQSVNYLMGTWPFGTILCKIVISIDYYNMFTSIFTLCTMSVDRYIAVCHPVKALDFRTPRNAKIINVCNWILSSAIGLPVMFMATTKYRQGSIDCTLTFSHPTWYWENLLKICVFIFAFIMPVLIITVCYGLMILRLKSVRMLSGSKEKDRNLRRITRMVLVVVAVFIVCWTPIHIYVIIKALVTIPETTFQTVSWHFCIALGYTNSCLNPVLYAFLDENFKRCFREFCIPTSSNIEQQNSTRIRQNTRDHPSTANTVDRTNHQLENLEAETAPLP
Sequence of 5-hydroxytryptamine receptor 2B (Homo sapiens) (P41595 whole entry): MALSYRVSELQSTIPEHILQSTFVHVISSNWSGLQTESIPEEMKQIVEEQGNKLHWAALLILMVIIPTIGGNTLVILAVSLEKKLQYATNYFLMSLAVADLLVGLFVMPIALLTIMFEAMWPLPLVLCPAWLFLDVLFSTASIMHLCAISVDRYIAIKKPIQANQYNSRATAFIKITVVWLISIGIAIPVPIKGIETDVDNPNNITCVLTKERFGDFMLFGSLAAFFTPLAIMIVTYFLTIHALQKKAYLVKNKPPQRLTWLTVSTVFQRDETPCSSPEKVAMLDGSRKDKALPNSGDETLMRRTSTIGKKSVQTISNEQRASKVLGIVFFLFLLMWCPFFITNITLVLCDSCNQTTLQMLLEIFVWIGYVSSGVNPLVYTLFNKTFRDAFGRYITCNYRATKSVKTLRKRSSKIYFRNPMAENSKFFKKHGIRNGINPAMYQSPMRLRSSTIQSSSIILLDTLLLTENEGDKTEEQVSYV
Sequence of 5-hydroxytryptamine receptor 1B (Homo sapiens) (P28222 whole entry): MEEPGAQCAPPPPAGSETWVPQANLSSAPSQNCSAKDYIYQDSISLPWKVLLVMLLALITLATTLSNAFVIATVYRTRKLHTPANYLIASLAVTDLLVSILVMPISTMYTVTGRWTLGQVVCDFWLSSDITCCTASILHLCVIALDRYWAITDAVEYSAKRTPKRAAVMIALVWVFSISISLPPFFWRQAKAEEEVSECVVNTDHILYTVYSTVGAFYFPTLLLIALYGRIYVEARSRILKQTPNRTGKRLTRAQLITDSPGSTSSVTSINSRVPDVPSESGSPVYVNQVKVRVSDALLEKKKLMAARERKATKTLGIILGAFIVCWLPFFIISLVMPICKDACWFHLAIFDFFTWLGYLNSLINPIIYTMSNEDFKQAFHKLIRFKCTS
Sequence of 5-hydroxytryptamine receptor 1E (Homo sapiens) (P28566 whole entry): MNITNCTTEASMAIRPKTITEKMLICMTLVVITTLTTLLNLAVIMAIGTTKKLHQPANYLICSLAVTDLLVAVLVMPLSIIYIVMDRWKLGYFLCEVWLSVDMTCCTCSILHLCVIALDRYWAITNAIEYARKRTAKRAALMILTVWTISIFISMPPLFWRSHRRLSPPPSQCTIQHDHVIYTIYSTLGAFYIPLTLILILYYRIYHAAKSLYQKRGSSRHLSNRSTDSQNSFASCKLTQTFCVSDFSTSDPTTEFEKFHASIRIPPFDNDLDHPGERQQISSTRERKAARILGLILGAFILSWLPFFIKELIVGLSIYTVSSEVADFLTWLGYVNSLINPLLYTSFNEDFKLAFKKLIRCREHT
Sequence of Histamine H1 receptor (Homo sapiens) (P35367 whole entry): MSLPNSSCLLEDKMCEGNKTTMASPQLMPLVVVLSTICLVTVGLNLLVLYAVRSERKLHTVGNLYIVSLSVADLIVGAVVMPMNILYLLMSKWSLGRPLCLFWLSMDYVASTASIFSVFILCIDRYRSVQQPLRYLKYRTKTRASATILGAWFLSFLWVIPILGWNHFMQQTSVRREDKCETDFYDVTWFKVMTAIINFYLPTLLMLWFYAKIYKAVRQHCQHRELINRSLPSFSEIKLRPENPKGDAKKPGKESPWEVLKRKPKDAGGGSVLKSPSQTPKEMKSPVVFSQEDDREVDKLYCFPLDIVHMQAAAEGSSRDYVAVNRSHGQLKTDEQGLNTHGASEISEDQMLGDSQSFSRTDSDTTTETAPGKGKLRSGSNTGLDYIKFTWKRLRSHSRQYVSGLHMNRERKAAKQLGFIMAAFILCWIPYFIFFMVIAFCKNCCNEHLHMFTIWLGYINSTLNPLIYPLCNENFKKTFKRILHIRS
Sequence of Histamine H3 receptor (Homo sapiens) (Q9Y5N1 whole entry): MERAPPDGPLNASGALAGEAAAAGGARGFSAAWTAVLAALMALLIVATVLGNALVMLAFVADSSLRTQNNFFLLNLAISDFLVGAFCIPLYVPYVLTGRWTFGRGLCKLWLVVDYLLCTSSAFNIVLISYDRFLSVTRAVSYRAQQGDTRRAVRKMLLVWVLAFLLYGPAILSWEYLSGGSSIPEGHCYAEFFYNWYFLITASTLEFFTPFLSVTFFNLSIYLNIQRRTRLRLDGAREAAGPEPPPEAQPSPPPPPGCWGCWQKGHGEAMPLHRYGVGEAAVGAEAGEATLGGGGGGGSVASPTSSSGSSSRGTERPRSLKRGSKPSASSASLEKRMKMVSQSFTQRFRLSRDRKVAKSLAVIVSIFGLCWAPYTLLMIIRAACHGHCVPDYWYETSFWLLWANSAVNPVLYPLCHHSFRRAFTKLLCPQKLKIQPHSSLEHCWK
Sequence of 5-hydroxytryptamine receptor 7 (Homo sapiens) (P34969 whole entry): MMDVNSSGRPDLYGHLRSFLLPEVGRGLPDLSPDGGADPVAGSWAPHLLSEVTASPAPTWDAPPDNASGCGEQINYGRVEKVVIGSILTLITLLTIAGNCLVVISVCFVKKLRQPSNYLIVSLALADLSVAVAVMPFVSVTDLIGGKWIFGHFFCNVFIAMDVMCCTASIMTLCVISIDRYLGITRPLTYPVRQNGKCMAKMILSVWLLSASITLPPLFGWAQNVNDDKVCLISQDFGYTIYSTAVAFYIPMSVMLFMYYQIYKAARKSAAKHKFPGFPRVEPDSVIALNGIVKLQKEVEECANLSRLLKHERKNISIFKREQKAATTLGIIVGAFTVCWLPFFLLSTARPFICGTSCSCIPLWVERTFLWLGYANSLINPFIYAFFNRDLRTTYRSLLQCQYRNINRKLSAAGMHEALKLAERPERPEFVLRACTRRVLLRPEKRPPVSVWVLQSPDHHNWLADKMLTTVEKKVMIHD
Sequence of Sigma intracellular receptor 2 (Homo sapiens) (Q5BJF2 whole entry): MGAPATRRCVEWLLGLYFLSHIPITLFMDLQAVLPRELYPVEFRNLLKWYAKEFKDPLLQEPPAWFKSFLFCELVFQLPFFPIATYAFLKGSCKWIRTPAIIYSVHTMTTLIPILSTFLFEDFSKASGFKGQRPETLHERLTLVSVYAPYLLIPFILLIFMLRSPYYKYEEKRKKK
Sequence of D(2) dopamine receptor (Homo sapiens) (P14416 whole entry): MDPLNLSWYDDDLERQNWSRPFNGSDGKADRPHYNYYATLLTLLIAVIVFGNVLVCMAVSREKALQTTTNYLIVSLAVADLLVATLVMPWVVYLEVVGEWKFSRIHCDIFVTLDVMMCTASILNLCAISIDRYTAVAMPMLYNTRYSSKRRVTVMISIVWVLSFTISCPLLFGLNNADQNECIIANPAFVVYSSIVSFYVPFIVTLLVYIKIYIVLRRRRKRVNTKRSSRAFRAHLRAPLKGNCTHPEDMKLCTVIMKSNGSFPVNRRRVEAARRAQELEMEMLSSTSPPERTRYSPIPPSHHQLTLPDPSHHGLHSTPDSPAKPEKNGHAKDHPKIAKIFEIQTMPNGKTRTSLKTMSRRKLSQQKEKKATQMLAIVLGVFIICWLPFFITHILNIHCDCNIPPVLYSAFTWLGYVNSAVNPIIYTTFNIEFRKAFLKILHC
Sequence of Sigma non-opioid intracellular receptor 1 (Homo sapiens) (Q99720 whole entry): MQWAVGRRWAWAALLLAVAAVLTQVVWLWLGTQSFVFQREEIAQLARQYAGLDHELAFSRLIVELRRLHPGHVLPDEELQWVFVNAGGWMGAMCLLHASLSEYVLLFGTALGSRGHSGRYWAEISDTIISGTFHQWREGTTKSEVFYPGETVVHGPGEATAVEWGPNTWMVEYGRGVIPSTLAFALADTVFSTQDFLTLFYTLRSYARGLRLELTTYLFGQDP
Sequence of Sodium-dependent dopamine transporter (Homo sapiens) (Q01959 whole entry): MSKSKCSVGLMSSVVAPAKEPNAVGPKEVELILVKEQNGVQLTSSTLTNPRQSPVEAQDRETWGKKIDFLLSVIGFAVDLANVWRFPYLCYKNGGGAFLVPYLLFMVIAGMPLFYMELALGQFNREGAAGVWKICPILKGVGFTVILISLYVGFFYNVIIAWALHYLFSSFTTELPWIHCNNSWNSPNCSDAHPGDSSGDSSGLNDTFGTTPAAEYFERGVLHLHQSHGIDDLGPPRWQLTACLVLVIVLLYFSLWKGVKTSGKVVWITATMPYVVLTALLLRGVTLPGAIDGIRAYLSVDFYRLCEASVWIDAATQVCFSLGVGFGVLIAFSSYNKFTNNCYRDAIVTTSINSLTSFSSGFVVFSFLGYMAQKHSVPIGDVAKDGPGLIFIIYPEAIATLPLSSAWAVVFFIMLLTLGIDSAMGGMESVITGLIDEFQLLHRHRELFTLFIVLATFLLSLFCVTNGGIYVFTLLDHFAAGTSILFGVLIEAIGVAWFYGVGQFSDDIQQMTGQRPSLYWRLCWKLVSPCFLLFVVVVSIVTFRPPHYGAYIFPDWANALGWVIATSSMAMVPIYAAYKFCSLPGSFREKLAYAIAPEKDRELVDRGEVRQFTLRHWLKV
Sequence of Beta-2 adrenergic receptor (Homo sapiens) (P07550 whole entry, looked up): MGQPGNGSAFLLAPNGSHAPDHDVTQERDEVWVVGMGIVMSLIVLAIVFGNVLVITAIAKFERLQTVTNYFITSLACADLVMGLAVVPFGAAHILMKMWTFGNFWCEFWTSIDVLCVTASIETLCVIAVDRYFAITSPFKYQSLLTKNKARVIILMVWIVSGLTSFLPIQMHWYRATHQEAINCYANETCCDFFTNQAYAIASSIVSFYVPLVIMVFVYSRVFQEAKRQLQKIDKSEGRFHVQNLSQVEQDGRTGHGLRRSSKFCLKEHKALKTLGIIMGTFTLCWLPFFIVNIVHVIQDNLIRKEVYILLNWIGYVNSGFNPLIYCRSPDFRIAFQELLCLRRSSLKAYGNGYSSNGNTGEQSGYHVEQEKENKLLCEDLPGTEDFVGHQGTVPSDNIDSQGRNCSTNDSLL

SMILES | inhibition [1] [%] | inhibition [4] [%] | inhibition [6] [%] | inhibition [7] [%] | inhibition [8] [%] | inhibition [9] [%] | inhibition [10] [%] | inhibition [11] [%] | inhibition [13] [%] | inhibition [14] [%] | inhibition [15] [%] | inhibition [16] [%] | inhibition [17] [%] | inhibition [18] [%] | inhibition [19] [%] | inhibition [20] [%] | inhibition [21] [%] | further results
O=C(O)c1n[nH]c2c1C[C@H]1C[C@@H]21 | 8.74 | 3.75 | -9.71 | -4.86 | -7.37 | -7.4 | 10 | 13 | 5.8 | 15.1 | -5.09 | -6.22 | -4.24 | 14.3 | 1.37 | 11.9 | 4.46 | inhibition [2]: 3.24%; inhibition [3]: 1.98%; inhibition [5]: -7.24%; inhibition [12]: 17.2%
Cc1c(C(=O)NC2CCCCC2)sc2nc3ccc(N)cc3n12 | -6.44 | 5.51 | -1.44 | 38.1 | 11.7 | 4.62 | 1.51 | 27.8 | 5.97 | 53.3 | 6.55 | 17.5 | 8.54 | 62.8 | 17.7 | 10.3 | -2.67 | inhibition [22]: -5.41%; inhibition [23]: 7.6%; inhibition [24]: 36.7%; inhibition [25]: 33.1%; inhibition [26]: 10.5%; inhibition [27]: -6.74%; inhibition [28]: 7.26%; inhibition [29]: -9.6%; inhibition [30]: 21.4%
